US12329738B2, “Urolithin A and a composition containing same for external use in inflammations of various etiologies” (WARSZAWSKI UNIWERSYTET MEDYCZNY, priority 2018, dated 2025)

Tests used:
[1] = test system: Wistar rats (DNCB-induced atopic dermatitis); experiment: Pruritus level (scratch reflexes) in DNCB-induced atopic dermatitis rat model; assay type: in vivo
Protocol: Wistar rats aged 5-6 weeks (at the start of the experiment) kept under standard conditions with free access to feed and water were used for the tests. The animals were divided into 5 groups, 8 individuals in each group. To prepare 2,4-dinitrochlorobenzene (DNCB) composition inducing inflammation, DNCB was dissolved in 70% ethanol to a final concentration of 1.5% (w/v). Therapeutic composition was an ointment based on white petrolatum with 0.2% or 1.0% urolithin A added. The control ointment was white petrolatum without addition of urolithin A. The induction of chronic atopic dermatitis involved local 9-fold infiltration with 60 μl 1.5% 2,4-dinitrochlorobenzene (DNCB) on each (external and internal) surface of the right ear over 3 weeks (3 times a week). Negative control was the right ear of rats without induction inflammation. Treatment of atopic dermatitis with 0.2% or 1.0% urolithin composition and white petrolatum (control) or 1.0% hydrocortisone composition (positive control) was started eight days after sensitization—one day before the fourth application of DNCB. Ointments with appropriate for given group drug added were applied in a total volume of about 20 μl to each ear surface one day before and 6 hours after each DNCB application (for a period of 3 weeks). The negative control group consisted of rats without induced inflammation and treated with white petrolatum in a regimen analogous to the composition of urolithin A or hydrocortisone. Measurement of pruritus level (as measured by scratching reflexes) was evaluated as the total frequency of scratch reflexes during 10 minutes immediately after DNCB application on days 0, 4, 8, 12, 16, 20, 24, 28 and 32 of the experiment). Scratching was defined as a single or series of several reflexes of scratching with a paw directed at the site of DNCB application. The experimental results obtained were analyzed using the Statistica 7.1 program (StatSoft, Inc., Tulsa, OK, USA) and presented as mean values±SE. Statistical significance was set at P≤0.05. The results with established normal distribution in the D'Agostin and Pearson test were prepared using two- or three-factor analysis of variance (ANOVA). Parametric post-hoc analysis for individual time points was performed using the Bonferroni test.

[2] = test system: NHDF fibroblasts (human normal skin fibroblasts); conditions: comparative studies by the inventors
Protocol: NHDF fibroblasts (human normal skin fibroblasts) were cultured in the DMEM medium supplemented with 10% FBS and a mixture of antibiotics—penicillin and streptomycin at 37° C., 5% CO2. […] After incubation with the compounds, the cells were washed twice with warm medium. The effect on cell viability was assessed using a standard MTT test.

mRNA for TNF-alpha = experiment: TNF-alpha mRNA expression in THP-1 derived macrophages (real time PCR); assay type: cell-based, human; conditions: 40 μM; LPS stimulation; FIG. 14
Protocol: Monocytes of the THP-1 line were cultured in RPMI 1640 medium supplemented with 10% FBS and 2 mM glutamine. For transformation of monocytes into macrophages, the cells were treated with 12.5 ng/mL PMA (phorbol 12-myristate 13-acetate) for 48 hours, then washed and incubated for 24 hours in a culture medium without PMA. After this time, urolithin A, urolithin B, iso-urolithin A and the corresponding glucuronides (GUA, GUB and GiUA) were added to the cells at a concentration of 40 μM. After 1 hour of incubation with the compounds, the cells were stimulated with LPS from Escherichia coli (10 ng/mL).
To assess the level of TNF-alpha production, the cells were incubated for 6 hours, to assess the expression of mRNA for TNF-alpha, the cells were incubated for 24 hours, to assess the effect on ERK1/2 phosphorylation, the cells were incubated for 35 minutes.
The level of TNF-alpha in the culture medium was determined using the immunochemical ELISA method (BD biosciences). Evaluation of the expression of mRNA for TNF-alpha was performed using real time PCR. After 24 hours of incubation, RNA was isolated using NucleoSpin RNA Clean-up (Macherey-Nagel). The amount and quality of isolated RNA was determined using 2100 Bioanalyzer (Agilent Technologies). The expression level of mRNA for TNF-α was determined using Brilliant II SYBR Green QPCR Kit and Aria Mx Real-Time PCR thermocycler (Agilent Technologies). The following were used as primers for TNF-alpha: forward: 5′-[…]-3′, reverse: 5′-[…]-3′. Beta-actin (ACTB) was used as the housekeeping gene; primer forward: 5′-[…]-3′, reverse: 5′-[…]-3′).
The obtained results of experiments on in vitro models were analyzed using the Statistica 13 program (StatSoft, Inc., Tulsa, OK, USA) and presented as mean values±SEM. Statistical significance was set at P≤0.05. The results with established normal distribution in the D'Agostin and Pearson test were prepared using analysis of variance (ANOVA). Parametric post-hoc analysis was performed using Dunnett's test.

[3] = Local application of urolithin A ointment on skin by volunteers; assay type: in vivo, human; conditions: 1.0% urolithin A ointment in white petrolatum, 20 mg per 4 cm^2 once a day for two weeks
Protocol: The therapeutic composition was an ointment prepared on the base of white petrolatum with 1.0% urolithin A added. The control ointment was white petrolatum without the addition of urolithin A. 1.0% urolithin A composition and the carrier—white petrolatum was applied on washed and dried skin by volunteers themselves, at a dose of 20 mg ointment per surface 4 cm^2 daily, once a day for two weeks.
The following parameters were taken into account in the study: feeling of discomfort after application of the composition on the skin, ease of application, discoloration of the skin at the site of application, redness of the skin at the site of application of the composition, degree of drying of the treated area of the skin, sensation of pinching, burning, itching and other types of discomfort. Participants in the study determined their level of satisfaction/dissatisfaction on a 10-point scale, 0 being dissatisfaction and 10 being satisfaction with the pharmaceutical composition of the present invention.

tyrosinase = molecular target: T1, tyrosinase (Mus musculus, UniProt P11344); conditions: B16 melanoma cells; cited from earlier work
T1 sequence (P11344 19-533): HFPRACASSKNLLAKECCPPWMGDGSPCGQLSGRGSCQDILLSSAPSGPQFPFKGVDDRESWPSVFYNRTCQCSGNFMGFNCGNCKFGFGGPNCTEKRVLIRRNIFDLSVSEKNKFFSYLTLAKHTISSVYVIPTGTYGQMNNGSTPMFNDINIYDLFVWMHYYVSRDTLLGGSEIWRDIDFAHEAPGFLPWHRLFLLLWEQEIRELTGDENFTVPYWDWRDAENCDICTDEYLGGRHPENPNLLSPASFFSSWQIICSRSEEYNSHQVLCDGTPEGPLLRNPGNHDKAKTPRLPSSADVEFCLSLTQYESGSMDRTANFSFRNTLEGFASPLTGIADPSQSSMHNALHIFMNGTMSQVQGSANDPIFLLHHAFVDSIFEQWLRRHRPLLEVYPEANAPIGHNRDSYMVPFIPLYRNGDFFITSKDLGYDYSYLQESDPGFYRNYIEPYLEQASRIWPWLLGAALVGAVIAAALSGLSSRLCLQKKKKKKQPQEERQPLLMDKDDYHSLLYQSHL

[4] = following ingestion of food products rich in ellagitannins; cited from earlier work

Compound: O=c1oc2cc(O)ccc2c2ccc(O)cc12 [urolithin A]
- Inhibition of scratching reflexes, comparison of urolithin doses with each other ([1]; 0.2% vs 1%, p<0.05): more effective at a concentration of 1%
- Reduction in scratching rate, urolithin vs. hydrocortisone ([1]; overall effect, p<0.05): stronger
- Scratching rate (frequency of scratch reflexes) ([1]; topical ointment, urolithin A 0.2 and 1.0% (p<0.001), hydrocortisone 1% (p<0.01)): reduction in scratching rate
- Inhibition of scratching reflexes compared to hydrocortisone 1% ([1]; urolithin A 0.2% ointment, p=0.39): absence of significantly greater efficiency
- Inhibition of scratching reflexes compared to hydrocortisone 1% ([1]; urolithin A 1% ointment, p<0.05): significantly greater inhibition of scratching reflexes compared to hydrocortisone
- Antiproliferative activity on human skin fibroblast cells [2]: neither urolithin A, nor 8-acetyl-urolithin A, nor 3-acetyl-urolithin A showed antiproliferative activity
- TNF-alpha mRNA expression in THP-1 derived macrophages (mRNA for TNF-alpha): inhibitory effect on TNF-alpha mRNA expression
- Adverse effects after skin application [3]: did not cause any adverse effects
- Tyrosinase activity (depigmentation) (tyrosinase): suppressing tyrosinase activity
- Concentration in feces, tissues, blood and urine [4]: ≤ 100 µM
